Data published in patent US10017509B2, “Macrocylic pyrimidine derivatives” (Janssen Pharmaceutica NV, priority 2014, dated 2018).

Columns and labels:
EF2K [1] = target: T1, EF2K (Homo sapiens, UniProt O00418); test: Biochemical EF2K lysate-based kinase assay (AlphaLISA p-eEF2 Thr56); conditions: pIC50 = -log IC50 (M), read-out: eEF2K_C_alphalisa pIC50 (converted)
T1 construct: host or cells: LN-229 cell lysate
T1 sequence (O00418 1-725): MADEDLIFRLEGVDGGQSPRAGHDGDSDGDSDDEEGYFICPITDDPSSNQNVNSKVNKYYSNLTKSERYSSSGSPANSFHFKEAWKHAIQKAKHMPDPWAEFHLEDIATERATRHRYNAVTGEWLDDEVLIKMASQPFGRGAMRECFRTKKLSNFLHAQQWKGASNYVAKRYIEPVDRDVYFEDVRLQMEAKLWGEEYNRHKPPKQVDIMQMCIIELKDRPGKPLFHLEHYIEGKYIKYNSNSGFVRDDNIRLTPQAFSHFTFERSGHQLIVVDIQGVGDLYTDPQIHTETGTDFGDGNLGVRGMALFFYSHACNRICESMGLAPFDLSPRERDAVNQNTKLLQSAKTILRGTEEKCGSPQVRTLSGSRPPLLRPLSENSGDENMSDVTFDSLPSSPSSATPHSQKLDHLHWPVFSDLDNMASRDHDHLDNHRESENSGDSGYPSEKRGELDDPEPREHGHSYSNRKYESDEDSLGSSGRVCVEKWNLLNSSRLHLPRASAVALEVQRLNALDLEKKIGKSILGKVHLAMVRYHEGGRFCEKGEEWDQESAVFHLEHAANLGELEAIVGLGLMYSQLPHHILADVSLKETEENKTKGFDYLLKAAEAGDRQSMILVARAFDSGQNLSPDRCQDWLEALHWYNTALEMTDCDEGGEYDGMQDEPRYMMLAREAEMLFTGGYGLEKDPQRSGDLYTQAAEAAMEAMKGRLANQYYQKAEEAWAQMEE
Description: Biochemical EF2K Lysate-Based Kinase Assay
LN-229 cells were purchased from ATCC (CRL-2611); these are glioblastoma cells. Cell lysates from LN229 were used in this kinase assay to provide both the kinase and the substrate (EF2). The AlphaLISA p-eEF2 (Thr56) detection assay was developed using a sandwich assay format with two specific antibodies recognizing different epitopes of the target, including one antibody against the phosphorylation site of interest. One anti-eEF2 antibody was conjugated onto AlphaLISA Acceptor beads, while the second antibody was biotinylated and captured by streptavidin coated Donor beads.
Compound was mixed with LN-229 cell lysates in the presence of a kinase buffer (e.g. HEPES) at a pH of 6.6, containing 10 mM Mg^2+ (e.g. magnesium acetate) and 10 mM adenosine-tri-phosphate (ATP) and incubated at room temperature for 15 minutes. The kinase reaction was stopped with excess ethylenediaminetetraacetic acid disodium salt and the biotinylated-anti phospho eEF2 antibody (3 nM) was added for 1 hour. Then the anti-EF2 acceptor beads (10 μg/ml) as well as the streptavidin coated donor beads (20 μg/ml) were added for 1 hour, and the AlphaLISA signal was measured in an Envision instrument once, left overnight, and measured again for the final read.
(§1) (pIC50 is −log IC50 where IC50 represents the concentration expressed in M at which the test compound gives 50% inhibition)

EF2K [2] = target: T1, EF2K; test: EF2K cell-based assay (P-EF2 AlphaLISA, 2-deoxyglucose stimulated MCF10A cells); conditions: 2.5 mM 2-deoxyglucose stimulated, P-EF2 Thr56, pIC50 = -log IC50 (M), read-out: eEF2K_C_PThr56 pIC50 (converted)
Method: In this assay, 2.5 mM 2-deoxyglucose was used to deplete intracellular ATP and activate 5′ adenosine monophosphate-activated protein kinase (AMPK) in the immortalized epithelial breast cell lines, MCF10A. MCF 10A cells were purchased from ATCC (CRL-10317).
MCF10A cells are seeded at a density of 1.25×10^5 Cells/ml at 100 μl/well in a 96-well plate and incubated for 24 hours (37° C., 5% CO2). Compound is added for 1 hour, and cell are stimulated with 2.5 mM of 2-deoxy-glucose for 4 hours. Medium is then removed, and cells are lysed in an ice-cold buffer M-PER (Thermo Scientific, 78501), containing protease and phosphatase inhibitors. P-EF2 levels are determined in these lysates using the P-EF2 AlphaLISA described above.
as §1

[3] = target: Vps34 (PIK3C3 lipid kinase) (Homo sapiens, UniProt Q8NEB9); test: Biochemical Vps34 lipid kinase assay (ADP-Glo); conditions: for remaining activity at 1 µM: 1 h, read-out: VPS34_1microM_% of cntrl; for remaining activity at 1 µM / VPS34_1microM_% of cntrl: single dose 1 μM compound, residual activity compared to control (DMSO); for IC50: serial half-log dilution 10 μM to 0.3 nM, pIC50 = -log IC50 (M)
Method: Biochemical Vps34 Lipid Kinase Assay
A non-radiometric kinase assay (ADP-Glo™ Assay, Promega, Madison, Wi, USA) was used for measuring the kinase activity of the PIK3C3 lipid kinase. All kinase assays were performed in 96-well half-area microtiter plates in a 25 μl reaction volume. The reaction cocktail was pipetted in 3 steps in the following order: • 10 μl of ATP solution (in assay buffer, see below) • 5 μl of test sample in 5% DMSO 10 μl of enzyme/substrate mixture
All lipid kinase assays contained 50 mM HEPES (4-(2-hydroxyethyl)-1-piperazineethanesulfonic acid)-NaOH, pH 7.5, 1 mM EGTA ((ethylene glycol tetraacetic acid), 100 mM NaCl, 0.03% CHAPS (3-[(3-Cholamidopropyl)dimethylammonio]-1-propanesulfonate), 2 mM DTT (Dithiothreitol), 20 μM ATP (corresponding to the apparent ATP-Km), kinase (7.6 nM) and substrate (50 μM). The assay for PIK3C3 additionally contained 3 mM MnCl2.
The reaction cocktails were incubated at 30° C. for 60 minutes. The reaction was stopped with 25 μl ADP-Go™ reagent per well. Plates were incubated for 40 minutes at room temperature, followed by addition of 50 μl kinase detection reagent per well and incubation for 60 minutes at room temperature. Signal was determined with a microplate luminescence reader (Victor, Perkin Elmer). The assay was either performed using a single dose of compound (1 μM final concentration in the assay reaction) with resulting data expressed as residual activity compared to control (DMSO), or using a serial (half-log) dilution of compounds starting at 10 μM and down to 0.3 nM (final concentrations in the assay) with data expressed as the pIC50.
as §1

Sequence of Vps34 (PIK3C3 lipid kinase) (Q8NEB9 whole entry, species assumed): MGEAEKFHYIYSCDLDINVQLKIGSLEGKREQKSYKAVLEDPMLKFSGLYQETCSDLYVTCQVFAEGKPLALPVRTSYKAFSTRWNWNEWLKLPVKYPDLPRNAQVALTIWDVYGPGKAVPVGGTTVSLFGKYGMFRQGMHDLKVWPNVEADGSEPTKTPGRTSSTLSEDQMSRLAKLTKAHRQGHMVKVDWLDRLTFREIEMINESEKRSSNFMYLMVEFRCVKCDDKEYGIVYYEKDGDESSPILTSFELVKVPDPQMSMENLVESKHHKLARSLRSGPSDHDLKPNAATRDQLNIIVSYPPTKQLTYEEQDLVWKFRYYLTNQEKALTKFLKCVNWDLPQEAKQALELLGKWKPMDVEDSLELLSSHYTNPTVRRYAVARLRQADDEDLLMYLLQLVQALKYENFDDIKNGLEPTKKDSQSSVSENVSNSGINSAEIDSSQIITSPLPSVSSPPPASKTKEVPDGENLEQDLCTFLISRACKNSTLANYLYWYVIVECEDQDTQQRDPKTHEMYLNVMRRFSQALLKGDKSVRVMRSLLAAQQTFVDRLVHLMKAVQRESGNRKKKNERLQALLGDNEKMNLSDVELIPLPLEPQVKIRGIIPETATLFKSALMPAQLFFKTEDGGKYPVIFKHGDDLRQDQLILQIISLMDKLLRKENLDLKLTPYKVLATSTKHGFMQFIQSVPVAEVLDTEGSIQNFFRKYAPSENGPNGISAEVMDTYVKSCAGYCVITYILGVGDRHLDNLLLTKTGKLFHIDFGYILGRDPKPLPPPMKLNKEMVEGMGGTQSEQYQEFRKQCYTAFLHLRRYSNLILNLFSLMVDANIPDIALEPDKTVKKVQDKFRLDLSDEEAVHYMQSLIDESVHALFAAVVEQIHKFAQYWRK

| Compound | IC50 (EF2K [1]) [M] | IC50 (EF2K [2]) [M] | remaining activity at 1 µM [3] [%] | IC50 [3] [M] | VPS34_1microM_% of cntrl [3] |
| --- | --- | --- | --- | --- | --- |
| O=C1CN2CCN(Cc3cccc(c3)Nc3nccc(n3)-c3ccc(nc3)NCCCN1)C(C(F)(F)F)C2 (centres unmarked) [Compound 50] | 1.12e-07 | 4.9e-06 | 12.4 | 3.98e-07 |  |
| O=C1CN2CCN(CC2=O)Cc2cccc(c2)Nc2nccc(n2)-c2ccc(nc2)NCCCN1 [Compound 77] | 2.09e-06 | > 3.02e-05 | 6.27 | 1.29e-07 |  |
| O=C1CN2CCN(CC2)Cc2cccc(c2)Nc2nccc(n2)-c2ccc(nc2)N2CC(O)CC2CCN1 (single isomer, unassigned) [Compound 91] | 1.17e-08 | 1.41e-06 |  | 5.13e-06 |  |
| O=C1CN2CCN(CC2)Cc2cccc(c2)Nc2nccc(n2)-c2ccc(nc2)CN(C(=O)C2CC2)CCN1 [Compound 44] | 8.51e-08 | 2.4e-06 | 10.2 | 3.02e-07 |  |
| O=C1CN2CCN(CC2)Cc2cccc(c2)Nc2nccc(n2)-c2ccc(nc2)N2CCCC2CN1 (centres unmarked) [Compound 26] | 1.48e-05 | > 3.02e-05 |  | 1.02e-07 | 5.23 % of cntrl |
| CN1CCCN(C)c2ccc(cn2)-c2ccnc(n2)Nc2cccc(c2)N2CCN(CC2)CC1=O [Compound 110] | 1.48e-06 | > 3.02e-05 | 7.68 | 3.47e-07 |  |
| CN1CCCN(C)c2ccc(cn2)-c2ccnc(n2)Nc2cccc(c2)CC2(O)CCN(CC2)CC1=O [Compound 114] | 4.47e-06 | 2.34e-05 | 30.8 |  |  |
| CC(C)N1CCNc2ccc(cn2)-c2ccnc(n2)Nc2cccc(c2)CN2CCN(CC2)CC1=O [Compound 21] | 1.1e-06 | 8.71e-06 | 23.6 | 5.01e-07 |  |
| CN1CCCN(C)c2ccc(cn2)-c2ccnc(n2)Nc2cccc(c2)CN2CCN(CC2)CC1=O [Compound 1] | 7.59e-08 | 2.95e-06 |  | 1.55e-06 |  |
| O=C1NCCCNc2ccc(cn2)-c2ccnc(n2)Nc2cccc(c2)CN2CCN1CC2 [Compound 130] | > 3.02e-05 | > 3.02e-05 | 21 | 2.4e-07 |  |
| CN1CCCN(C)c2ccc(cn2)-c2ccnc(n2)Nc2ccnc(c2)CN2CCN(CC2)CC1=O [Compound 32] | 1.17e-07 | 5.13e-06 | 11.1 | 1.45e-07 |  |
| CN1CCCN(C)c2ccc(cn2)-c2ccnc(n2)Nc2cccc(c2)CN2CCN(CC1=O)CC2CO (single isomer, unassigned) [Compound 52] | 9.12e-07 | > 3.02e-05 | 12.8 | 3.98e-07 |  |
| CN(C)CCOCC1CN2CCN1Cc1cccc(c1)Nc1nccc(n1)-c1ccc(nc1)N(C)CCCN(C)C(=O)C2 (centres unmarked) [Compound 108] | 2.09e-07 | 2.45e-05 | 25.5 | 5.25e-07 |  |
| CN1CCCN(C)c2ccc(cn2)-c2ccnc(n2)Nc2cccc(c2)CCN2CCN(CC2)CC1=O [Compound 29] | 1.74e-05 | > 3.02e-05 | 5.67 | 2e-07 |  |
| CN1CCCN(C)c2ccc(cn2)-c2ccnc(n2)Nc2cccc(c2)CN2CCCN(CC2)CC1=O [Compound 57] | 2.57e-06 | > 3.02e-05 |  | 2.95e-07 |  |
| O=C1CC2CN(CCN2)Cc2cccc(c2)Nc2nccc(n2)-c2ccc(nc2)NCCCN1 (centres unmarked) [Compound 70] | 6.03e-06 | > 3.02e-05 | 7.38 | 1.2e-08 |  |
| CC1CN2CCN1Cc1cccc(c1)Nc1nccc(n1)-c1ccc(nc1)N(C)CCCN(C)C(=O)C2 (centres unmarked) [Compound 58] | 1.17e-07 | 2.09e-06 | 15.9 | 4.27e-07 |  |
| CN1CCCN(C)c2ccc(cn2)-c2ccnc(n2)Nc2cccc(c2)CN2CCN(C)C(CC1=O)C2 (centres unmarked) [Compound 129] | 9.55e-07 | 9.33e-06 | 9.26 | 4.68e-07 |  |
| CN1CCN(C)c2ccc(cn2)-c2ccnc(n2)Nc2cccc(c2)CN2CCN(C)C(C2)C1=O (centres unmarked) [Compound 69] | > 3.02e-05 |  | 22.8 | 2.24e-06 |  |
| O=C1CNCCNc2ccc(cn2)-c2ccnc(n2)Nc2cccc(c2)CN2CCN1CC2 [Compound 113] | 2.82e-06 | 4.47e-06 | 7.65 | 1.66e-07 |  |
| O=C1CN2CCN(CC2)Cc2cccc(c2)Nc2nccc(n2)-c2ccc(nc2)NCC(O)CN1 (centres unmarked) [Compound 23] | 5.01e-07 | 2.24e-05 | 7.45 | 1.51e-07 |  |
| CN1CCCN(C)c2ccc(cn2)-c2ccnc(n2)Nc2cccc(c2)CN2CCN(CC1=O)CC2COCCN1CCOCC1 (single isomer, unassigned) [Compound 100] | 6.46e-08 | 1.48e-05 | 43 |  |  |
| CN1CCCN(C)c2ccc(cn2)-c2ccnc(n2)Nc2cccc(c2)CN2CCN(CC1=O)CC2COCCO (single isomer, unassigned) [Compound 105] | 8.71e-08 | 1.78e-05 |  | 9.77e-07 | 28.59 % of cntrl |
| O=C1CN2CCN(CC2)Cc2cc(Cl)cc(c2)Nc2nccc(n2)-c2ccc(nc2)NCCCN1 [Compound 9] | ~6.03e-06 | > 3.02e-05 | 8.43 | 9.77e-08 |  |
| CC(C)N1CCN(C(C)C)c2ccc(cn2)-c2ccnc(n2)Nc2cccc(c2)CN2CCN(CC2)CC1=O [Compound 121] | 1.78e-05 |  | 34.1 |  |  |
| CN1CCCN(C)c2ccc(cn2)-c2ccnc(n2)Nc2cccc(c2)CN2CCN(CC2)C1=O [Compound 76] | 2.34e-07 |  | 8.71 | 3.47e-07 |  |
| CN1CCCN(C)c2ccc(cn2)-c2ccnc(n2)Nc2cccc(c2)CN2CCNC(C2)C1=O (centres unmarked) [Compound 74] | 2.04e-05 |  | 20.7 | 4.79e-07 |  |
| CN1CCN(C)c2ccc(cn2)-c2ccnc(n2)Nc2cccc(c2)CN2CCNC(C2)C1=O (centres unmarked) [Compound 68] | 2e-05 |  | 28.4 | 7.76e-07 |  |
